Experimental data taken from ChEMBL document CHEMBL1201862, “PubChem BioAssay data set” (2004).
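Values below derive from 48-hour exposures of cells grown in 96-well plates, with endpoints linearly interpolated between the two concentrations bracketing the appropriate inhibition level. Here, GI50 denotes the concentration required for 50% inhibition of growth.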 Activity calls are given as the source filed them. Rule as the data show it: active = GI50 up to about 1.1 µM and inactive = higher.

How the values were obtained:
Test in all cases: inhibition of tumour cell growth, NCI panel, 48 h
[1] = test system: IGROV-1
[2] = test system: MDA-MB-435
[3] = test system: SK-OV-3
[4] = test system: SR
[5] = test system: COLO 205
[6] = test system: SW-620
[7] = test system: UACC-62
[8] = test system: UO-31
[9] = test system: SF-295
[10] = test system: A549
[11] = test system: HCT-116
[12] = test system: M14
[13] = test system: LOX IMVI
[14] = test system: HOP-92
[15] = test system: UACC-257
[16] = test system: SK-MEL-28
[17] = test system: CCRF-CEM
[18] = test system: 786-0
[19] = test system: SNB-75
[20] = test system: NCI-H226

SMILES	GI50 [1]	GI50 [2]	GI50 [3]	GI50 [4]	GI50 [5]	GI50 [6]	GI50 [7]	GI50 [8]	GI50 [9]	GI50 [10]	GI50 [11]	GI50 [12]	GI50 [13]	GI50 [14]	GI50 [15]	GI50 [16]	GI50 [17]	GI50 [18]	GI50 [19]	GI50 [20]
CC(=O)O[C@H]1C(=O)[C@@]2(C)[C@H]([C@H](OC(=O)c3ccccc3)[C@]3(O)C[C@H](OC(=O)[C@H](O)[C@@H](NC(=O)OC(C)(C)C)c4ccco4)C(C)=C1C3(C)C)[C@]1(OC(C)=O)CO[C@@H]1C[C@@H]2O	0.00682 µM (active)	< 0.005 µM (active)	< 0.005 µM (active)	0.053 µM (active)	< 0.005 µM (active)	< 0.005 µM (active)	0.0129 µM (active)	0.0105 µM (active)	0.00687 µM (active)	< 0.005 µM (active)	< 0.005 µM (active)	0.0794 µM (active)	0.00546 µM (active)	7.23 µM (inactive)	11.1 µM (inactive)	0.205 µM (active)	< 0.005 µM (active)	0.00614 µM (active)	< 0.005 µM (active)	–
O=C1NCN(c2ccccc2)C12CCN(CC1COc3ccccc3O1)CC2 (stereo not given) [SPIROXATRINE]	27.5 µM (inactive)	> 100 µM (inactive)	51.3 µM (inactive)	> 100 µM (inactive)	> 100 µM (inactive)	> 100 µM (inactive)	> 100 µM (inactive)	50.7 µM (inactive)	33.8 µM (inactive)	> 100 µM (inactive)	> 100 µM (inactive)	> 100 µM (inactive)	> 100 µM (inactive)	–	36.6 µM (inactive)	> 100 µM (inactive)	> 100 µM (inactive)	31.6 µM (inactive)	36.4 µM (inactive)	49.9 µM (inactive)
COc1ccc(NC(=S)c2ccc(CN3CCCCC3)s2)cc1	22.8 µM (inactive)	19.6 µM (inactive)	16.4 µM (inactive)	16.8 µM (inactive)	16.2 µM (inactive)	19.4 µM (inactive)	17.1 µM (inactive)	18.4 µM (inactive)	18.3 µM (inactive)	20.3 µM (inactive)	16.9 µM (inactive)	16.7 µM (inactive)	18.1 µM (inactive)	–	16.6 µM (inactive)	17.3 µM (inactive)	14.8 µM (inactive)	17.8 µM (inactive)	–	–
NC(=O)c1nnc2c(F)cccc2c1N	> 100 µM (inactive)	77.3 µM (inactive)	45.2 µM (inactive)	> 100 µM (inactive)	73.3 µM (inactive)	27.4 µM (inactive)	73.8 µM (inactive)	56 µM (inactive)	> 100 µM (inactive)	84.5 µM (inactive)	64.4 µM (inactive)	> 100 µM (inactive)	52 µM (inactive)	–	> 100 µM (inactive)	–	28.7 µM (inactive)	> 100 µM (inactive)	> 100 µM (inactive)	46.6 µM (inactive)
O=C(O)CC(NC(=O)/C(=C/c1ccccc1)NC(=O)c1ccccc1)C(=O)O (stereo not given)	> 100 µM (inactive)	> 100 µM (inactive)	> 100 µM (inactive)	–	> 100 µM (inactive)	> 100 µM (inactive)	> 100 µM (inactive)	> 100 µM (inactive)	> 100 µM (inactive)	> 100 µM (inactive)	> 100 µM (inactive)	> 100 µM (inactive)	> 100 µM (inactive)	> 100 µM (inactive)	> 100 µM (inactive)	> 100 µM (inactive)	> 100 µM (inactive)	> 100 µM (inactive)	> 100 µM (inactive)	> 100 µM (inactive)
Nc1ncnc2c1ncn2C1C=CC(CP(=O)(O)O)C1 (stereo not given)	> 100 µM (inactive)	> 100 µM (inactive)	> 100 µM (inactive)	> 100 µM (inactive)	> 100 µM (inactive)	> 100 µM (inactive)	> 100 µM (inactive)	> 100 µM (inactive)	> 100 µM (inactive)	> 100 µM (inactive)	> 100 µM (inactive)	> 100 µM (inactive)	> 100 µM (inactive)	–	> 100 µM (inactive)	> 100 µM (inactive)	–	> 100 µM (inactive)	> 100 µM (inactive)	> 100 µM (inactive)
CCCCCCCCCCCCCCCC(=O)Nc1ccn(C2CCC(COP(=O)(O)OCC3OC(n4cc(F)c(=O)[nH]c4=O)CC3OC(C)=O)O2)c(=O)n1 (stereo not given)	20.5 µM (inactive)	15.5 µM (inactive)	29.2 µM (inactive)	–	13.1 µM (inactive)	16.9 µM (inactive)	10.7 µM (inactive)	7.48 µM (inactive)	6.71 µM (inactive)	1.67 µM (inactive)	8.04 µM (inactive)	13.7 µM (inactive)	7.1 µM (inactive)	5.62 µM (inactive)	14.7 µM (inactive)	17.9 µM (inactive)	1.47 µM (inactive)	5.14 µM (inactive)	14.9 µM (inactive)	30 µM (inactive)
Cc1cccc2c(N)c3cccc(C(=O)NCC[N+](C)(C)Cc4ccc(S(C)(=O)=O)cc4)c3nc12	27.9 µM (inactive)	> 100 µM (inactive)	33.6 µM (inactive)	–	47.1 µM (inactive)	56.4 µM (inactive)	> 95.9 µM (inactive)	75.9 µM (inactive)	89.1 µM (inactive)	1.44 µM (inactive)	36.5 µM (inactive)	> 100 µM (inactive)	28.8 µM (inactive)	70 µM (inactive)	> 100 µM (inactive)	> 100 µM (inactive)	7.03 µM (inactive)	28 µM (inactive)	10.8 µM (inactive)	98.2 µM (inactive)
COC(=O)C1=CSC2(S1)C(C(=O)OC)=CSc1c2ss/c1=N\c1ccccc1 (stereo not given)	2.47 µM (inactive)	1.78 µM (inactive)	2.72 µM (inactive)	0.605 µM (active)	2.16 µM (inactive)	2.51 µM (inactive)	1.6 µM (inactive)	2.52 µM (inactive)	1.81 µM (inactive)	2.52 µM (inactive)	1.83 µM (inactive)	2.02 µM (inactive)	1.67 µM (inactive)	–	2.43 µM (inactive)	2.38 µM (inactive)	1.6 µM (inactive)	1.49 µM (inactive)	2.22 µM (inactive)	–
CC(=O)N1C(c2[nH]c3ccccc3c2-c2ccccc2)CCN1c1ccccc1 (stereo not given)	> 10 µM (inactive)	> 10 µM (inactive)	> 10 µM (inactive)	> 10 µM (inactive)	> 10 µM (inactive)	> 10 µM (inactive)	–	> 10 µM (inactive)	> 10 µM (inactive)	> 10 µM (inactive)	> 10 µM (inactive)	> 10 µM (inactive)	> 10 µM (inactive)	–	> 10 µM (inactive)	> 10 µM (inactive)	7.8 µM (inactive)	> 10 µM (inactive)	> 10 µM (inactive)	> 10 µM (inactive)
C#CCOCC12C=CC(O1)C1C(=O)OCC12 (stereo not given)	> 100 µM (inactive)	> 100 µM (inactive)	> 100 µM (inactive)	> 100 µM (inactive)	> 100 µM (inactive)	> 100 µM (inactive)	> 100 µM (inactive)	> 100 µM (inactive)	> 100 µM (inactive)	> 100 µM (inactive)	> 100 µM (inactive)	> 100 µM (inactive)	> 100 µM (inactive)	–	> 100 µM (inactive)	> 100 µM (inactive)	> 100 µM (inactive)	> 100 µM (inactive)	> 100 µM (inactive)	> 100 µM (inactive)
Clc1ccc(CNc2nc(Cl)c3nc[nH]c3n2)cc1Cl	42.7 µM (inactive)	32 µM (inactive)	20.6 µM (inactive)	26.5 µM (inactive)	22.6 µM (inactive)	–	11.2 µM (inactive)	11.4 µM (inactive)	20 µM (inactive)	23.1 µM (inactive)	15.9 µM (inactive)	20.8 µM (inactive)	–	–	13.5 µM (inactive)	–	35.5 µM (inactive)	27.7 µM (inactive)	32.1 µM (inactive)	21.9 µM (inactive)
CC1(C)OC2C(=O)C=C(COCc3ccccc3)C2O1 (stereo not given)	19.8 µM (inactive)	25.2 µM (inactive)	9.44 µM (inactive)	35.1 µM (inactive)	20.5 µM (inactive)	23.6 µM (inactive)	12.3 µM (inactive)	21.9 µM (inactive)	35.2 µM (inactive)	> 100 µM (inactive)	23.6 µM (inactive)	26.3 µM (inactive)	25.6 µM (inactive)	–	35.5 µM (inactive)	30 µM (inactive)	21 µM (inactive)	42.8 µM (inactive)	> 10 µM (inactive)	22.9 µM (inactive)
COC(=O)c1c(O)ccc2c1c1c(n2Cc2ccccn2)C(=O)c2ccccc2C1	71 µM (inactive)	86.5 µM (inactive)	96.2 µM (inactive)	> 100 µM (inactive)	13.5 µM (inactive)	> 100 µM (inactive)	> 100 µM (inactive)	54.5 µM (inactive)	> 100 µM (inactive)	66.1 µM (inactive)	50 µM (inactive)	> 100 µM (inactive)	> 100 µM (inactive)	–	82.8 µM (inactive)	> 100 µM (inactive)	27.9 µM (inactive)	> 100 µM (inactive)	> 100 µM (inactive)	> 100 µM (inactive)
CC(=O)C12C[C@](C#N)(N3CCCCCC3)C1C=Cc1ccccc12 (stereo not given in full)	> 100 µM (inactive)	> 100 µM (inactive)	> 100 µM (inactive)	> 100 µM (inactive)	> 100 µM (inactive)	> 100 µM (inactive)	> 100 µM (inactive)	> 100 µM (inactive)	> 100 µM (inactive)	> 100 µM (inactive)	> 100 µM (inactive)	> 100 µM (inactive)	–	–	> 100 µM (inactive)	> 100 µM (inactive)	> 100 µM (inactive)	> 100 µM (inactive)	> 100 µM (inactive)	> 100 µM (inactive)
